According to the Kinase Knowledgebase extract (Sharma et al. 2016):

Assays:
PIK3CA (human) = PIK3CA (human) (UniProt P42336); assay: Assessment of PIK3CA Kinase Activity
PIK3CG (human) = PIK3CG (human) (UniProt P48736); assay: Assessment of PIK3CG Kinase Activity
Sequence of PIK3CG (human) (P48736 whole entry, looked up): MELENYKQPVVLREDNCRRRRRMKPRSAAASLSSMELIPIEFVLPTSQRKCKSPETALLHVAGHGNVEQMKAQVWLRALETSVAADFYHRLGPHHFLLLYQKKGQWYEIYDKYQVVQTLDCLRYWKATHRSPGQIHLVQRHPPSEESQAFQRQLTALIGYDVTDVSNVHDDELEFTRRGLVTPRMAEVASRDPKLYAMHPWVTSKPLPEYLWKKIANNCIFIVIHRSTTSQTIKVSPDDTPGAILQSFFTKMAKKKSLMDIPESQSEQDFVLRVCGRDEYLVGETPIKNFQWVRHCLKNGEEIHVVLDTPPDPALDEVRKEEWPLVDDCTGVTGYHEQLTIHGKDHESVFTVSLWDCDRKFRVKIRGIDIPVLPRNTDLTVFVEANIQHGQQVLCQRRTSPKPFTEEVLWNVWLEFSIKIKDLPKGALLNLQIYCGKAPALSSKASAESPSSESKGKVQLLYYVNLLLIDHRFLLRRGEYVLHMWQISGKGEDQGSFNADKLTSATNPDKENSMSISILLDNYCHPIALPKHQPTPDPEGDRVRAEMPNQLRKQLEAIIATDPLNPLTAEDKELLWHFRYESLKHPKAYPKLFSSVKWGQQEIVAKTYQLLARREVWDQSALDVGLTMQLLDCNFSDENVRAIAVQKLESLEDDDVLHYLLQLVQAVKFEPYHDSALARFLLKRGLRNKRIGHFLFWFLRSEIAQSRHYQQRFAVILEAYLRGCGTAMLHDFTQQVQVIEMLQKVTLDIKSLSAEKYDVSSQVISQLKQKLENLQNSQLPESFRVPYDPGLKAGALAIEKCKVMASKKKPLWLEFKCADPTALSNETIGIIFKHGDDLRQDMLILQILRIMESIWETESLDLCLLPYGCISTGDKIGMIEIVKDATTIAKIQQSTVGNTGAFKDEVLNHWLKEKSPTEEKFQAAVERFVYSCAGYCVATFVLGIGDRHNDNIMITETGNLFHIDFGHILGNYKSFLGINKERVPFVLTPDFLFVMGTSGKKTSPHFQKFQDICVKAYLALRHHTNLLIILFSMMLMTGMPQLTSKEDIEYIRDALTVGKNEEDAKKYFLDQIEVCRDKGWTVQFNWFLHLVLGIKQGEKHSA

Sequence of PIK3CA (human) (P42336 whole entry, looked up): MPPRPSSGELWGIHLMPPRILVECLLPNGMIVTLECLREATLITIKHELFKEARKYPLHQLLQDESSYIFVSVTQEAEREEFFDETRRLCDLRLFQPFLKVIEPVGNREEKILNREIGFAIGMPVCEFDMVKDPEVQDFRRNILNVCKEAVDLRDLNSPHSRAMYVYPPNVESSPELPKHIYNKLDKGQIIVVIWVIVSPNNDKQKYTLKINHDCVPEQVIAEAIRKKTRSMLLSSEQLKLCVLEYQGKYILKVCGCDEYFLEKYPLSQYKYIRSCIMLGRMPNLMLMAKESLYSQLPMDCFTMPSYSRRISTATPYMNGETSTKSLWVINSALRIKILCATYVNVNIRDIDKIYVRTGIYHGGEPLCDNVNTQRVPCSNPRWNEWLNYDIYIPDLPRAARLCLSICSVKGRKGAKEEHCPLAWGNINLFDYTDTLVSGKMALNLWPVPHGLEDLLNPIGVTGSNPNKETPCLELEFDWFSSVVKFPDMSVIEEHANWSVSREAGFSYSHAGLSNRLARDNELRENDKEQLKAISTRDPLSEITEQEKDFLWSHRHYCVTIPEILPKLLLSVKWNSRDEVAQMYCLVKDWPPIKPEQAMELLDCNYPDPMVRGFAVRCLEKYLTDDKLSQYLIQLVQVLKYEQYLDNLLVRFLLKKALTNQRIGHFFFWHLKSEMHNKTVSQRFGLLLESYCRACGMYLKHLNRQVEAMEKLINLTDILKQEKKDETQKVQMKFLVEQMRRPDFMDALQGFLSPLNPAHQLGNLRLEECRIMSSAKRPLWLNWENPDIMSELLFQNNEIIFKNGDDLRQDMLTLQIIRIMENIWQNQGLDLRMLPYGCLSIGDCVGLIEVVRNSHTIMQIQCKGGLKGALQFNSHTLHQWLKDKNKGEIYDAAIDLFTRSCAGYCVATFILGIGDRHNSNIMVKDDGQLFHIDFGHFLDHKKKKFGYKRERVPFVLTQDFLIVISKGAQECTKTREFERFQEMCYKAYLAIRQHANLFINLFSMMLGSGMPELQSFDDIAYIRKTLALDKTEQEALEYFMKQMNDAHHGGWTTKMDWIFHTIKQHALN

Structure (SMILES)	IC50 (PIK3CA (human))	IC50 (PIK3CG (human))
CCN1CCc2c(nc(-c3ccc(NC(=O)Nc4ccc(CN5CCN(C)CC5)cc4)cc3)nc2N2C3CCC2COC3)C1	1280 nM	–
CNC(=O)Nc1ccc(-c2nc3c(c(N4CC5CCC(C4)O5)n2)CCN(C(=O)c2ccccc2OC)C3)cc1	–	900 nM
CCCCCCC(=O)N1CCc2c(nc(-c3ccc(NC(=O)NC)cc3)nc2N2CC3CCC(C2)O3)C1	–	960 nM
CNC(=O)Nc1ccc(-c2nc3c(c(N4CC5CCC(C4)O5)n2)CCN(C(=O)CCC2CCCC2)C3)cc1	–	1050 nM
CC(C)N1CCc2c(nc(-c3ccc(NC(=O)Nc4ccncc4)cc3)nc2N2CC3CCC(C2)O3)C1	2030 nM	–
CNC(=O)Nc1ccc(-c2nc3c(c(N4CC5CCC(C4)O5)n2)CCN(C(=O)c2c(F)cccc2F)C3)cc1	–	300 nM
CC(C)N1CCc2c(nc(-c3ccc(NC(=O)Nc4ccncc4)cc3)nc2N2C3CCC2COC3)C1	2470 nM	–
CCN1CCc2c(nc(-c3ccc(NC(=O)Nc4ccc(N5CCN(C)CC5)cc4)cc3)nc2N2C3CCC2COC3)C1	1920 nM	–
CCCCC(CC)C(=O)N1CCc2c(nc(-c3ccc(NC(=O)NC)cc3)nc2N2CC3CCC(C2)O3)C1 (stereo unspecified)	–	270 nM
CNC(=O)Nc1ccc(-c2nc3c(c(N4CC5CCC(C4)O5)n2)CCN(S(=O)(=O)c2ccccc2)C3)cc1	–	205 nM
CN1CCN(c2ccc(NC(=O)Nc3ccc(-c4nc5c(c(N6C7CCC6COC7)n4)CCN(CC(F)(F)F)C5)cc3)cc2)CC1	1340 nM	–
CNC(=O)Nc1ccc(-c2nc3c(c(N4CC5CCC(C4)O5)n2)CCN(C(=O)c2ccc(C(C)(C)C)cc2)C3)cc1	–	3350 nM
CCN1CCc2c(nc(-c3ccc(NC(=O)NCCF)cc3)nc2N2C3CCC2COC3)C1	5780 nM	–
CNC(=O)Nc1ccc(-c2nc3c(c(N4CC5CCC(C4)O5)n2)CCN(C(=O)OCC(C)C)C3)cc1	–	350 nM
CNC(=O)Nc1ccc(-c2nc3c(c(N4CC5CCC(C4)O5)n2)CCNC3)cc1	2720 nM	> 10000 nM
CCN1CCc2c(nc(-c3ccc(NC(=O)Nc4ccccc4)cc3)nc2N2C3CCC2COC3)C1	917 nM	–
CN1CCc2c(nc(-c3ccc(NC(=O)Nc4ccncc4)cc3)nc2N2C3CCC2COC3)C1	2770 nM	–
CNC(=O)Nc1ccc(-c2nc3c(c(N4CC5CCC(C4)O5)n2)CCN(C)C3)cc1	3340 nM	> 10000 nM
CN(C)C1CCN(C(=O)c2ccc(NC(=O)Nc3ccc(-c4nc5c(c(N6CC7CCC(C6)O7)n4)CCNC5)cc3)cc2)CC1	1120 nM	3950 nM
CN1CCc2c(nc(-c3ccc(NC(=O)Nc4cccnc4)cc3)nc2N2C3CCC2COC3)C1	1110 nM	12000 nM
CCN1CCc2c(nc(-c3ccc(NC(=O)Nc4ccc(C(=O)OC)cc4)cc3)nc2N2C3CCC2COC3)C1	1280 nM	–
C=CCNC(=O)N1CCc2c(nc(-c3ccc(NC(=O)NC)cc3)nc2N2CC3CCC(C2)O3)C1	–	375 nM
CCN1CCc2c(nc(-c3ccc(NC(=O)NC4CC4)cc3)nc2N2C3CCC2COC3)C1	4850 nM	–

Structure (SMILES)	IC50 (PIK3CA (human))	IC50 (PIK3CG (human))
O=C(Nc1ccncc1)Nc1ccc(-c2nc3c(c(N4C5CCC4COC5)n2)CC[N+](CCF)(CCF)C3)cc1	1870 nM	–
O=C(Nc1ccncc1)Nc1ccc(-c2nc3c(c(N4C5CCC4COC5)n2)CCN(CC(F)(F)F)C3)cc1	1710 nM	–
CN(C)C1CCN(C(=O)c2ccc(NC(=O)Nc3ccc(-c4nc5c(c(N6C7CCC6COC7)n4)CCN(S(C)(=O)=O)C5)cc3)cc2)CC1	1330 nM	> 10000 nM
CNC(=O)Nc1ccc(-c2nc3c(c(N4CC5CCC(C4)O5)n2)CCN(C(=O)c2ccccc2F)C3)cc1	–	360 nM
CNC(=O)Nc1ccc(-c2nc3c(c(N4CC5CCC(C4)O5)n2)CCN(S(=O)(=O)c2ccc(C#N)cc2)C3)cc1	–	4000 nM
CCN1CCc2c(nc(-c3ccc(NC(=O)Nc4ccc(C#N)cc4)cc3)nc2N2C3CCC2COC3)C1	1650 nM	–
CCN1CCc2c(nc(-c3ccc(NC(=O)Nc4ccc(C(=O)O)cc4)cc3)nc2N2C3CCC2COC3)C1	4130 nM	–
CCN1CCc2c(nc(-c3ccc(NC(=O)Nc4ccc(CN(C)C)cc4)cc3)nc2N2C3CCC2COC3)C1	884 nM	–
CCN1CCc2c(nc(-c3ccc(NC(=O)Nc4ccc(C(F)(F)F)cc4)cc3)nc2N2C3CCC2COC3)C1	3010 nM	–
CNC(=O)Nc1ccc(-c2nc3c(c(N4CC5CCC(C4)O5)n2)CCN(C(=O)NC(C)(C)C)C3)cc1	–	375 nM
CNC(=O)Nc1ccc(-c2nc3c(c(N4CC5CCC(C4)O5)n2)CCN(S(=O)(=O)c2ccc(Cl)cc2)C3)cc1	–	3100 nM
CCN1CCc2c(nc(-c3ccc(NC(=O)Nc4ccc(C(N)=O)cc4)cc3)nc2N2C3CCC2COC3)C1	1010 nM	–
CCCCC(=O)N1CCc2c(nc(-c3ccc(NC(=O)NC)cc3)nc2N2CC3CCC(C2)O3)C1	–	545 nM
CNC(=O)Nc1ccc(-c2nc3c(c(N4CC5CCC(C4)O5)n2)CCN(S(=O)(=O)c2ccc(F)cc2)C3)cc1	–	600 nM
CNC(=O)Nc1ccc(-c2nc3c(c(N4CC5CCC(C4)O5)n2)CCN(S(=O)(=O)N(C)C)C3)cc1	–	190 nM
CCCCOC(=O)N1CCc2c(nc(-c3ccc(NC(=O)NC)cc3)nc2N2CC3CCC(C2)O3)C1	–	375 nM
CCN1CCc2c(nc(-c3ccc(NC(=O)Nc4ccc(N5CCC(N(C)C)CC5)cc4)cc3)nc2N2C3CCC2COC3)C1	1070 nM	–
CNC(=O)Nc1ccc(-c2nc3c(c(N4CC5CCC(C4)O5)n2)CCN(C(=O)C(C)(C)C)C3)cc1	–	300 nM
CNC(=O)Nc1ccc(-c2nc3c(c(N4CC5CCC(C4)O5)n2)CCN(C(=O)COC)C3)cc1	–	830 nM
CCN1CCc2c(nc(-c3ccc(NC(=O)Nc4ccc(OCCN(C)C)cc4)cc3)nc2N2C3CCC2COC3)C1	1220 nM	–
CNC(=O)Nc1ccc(-c2nc3c(c(N4CC5CCC(C4)O5)n2)CCN(C(=O)NC2CCCCC2)C3)cc1	–	600 nM
CCCCNC(=O)N1CCc2c(nc(-c3ccc(NC(=O)NC)cc3)nc2N2CC3CCC(C2)O3)C1	–	375 nM
CCCCCCNC(=O)N1CCc2c(nc(-c3ccc(NC(=O)NC)cc3)nc2N2CC3CCC(C2)O3)C1	–	195 nM

Second part, the compound after the results:

IC50 (PIK3CA (human))	IC50 (PIK3CG (human))	Structure (SMILES)
528 nM	–	CCN1CCc2c(nc(-c3ccc(NC(=O)Nc4ccc(C(=O)NC(C)C)cc4)cc3)nc2N2C3CCC2COC3)C1
334 nM	> 10000 nM	CS(=O)(=O)N1Cc2nc(-c3ccc(NC(=O)Nc4cccnc4)cc3)nc(N3CC4CCC(C3)O4)c2C1
582 nM	> 10000 nM	CNC(=O)Nc1ccc(-c2nc3c(c(N4C5CCC4COC5)n2)CCN(S(C)(=O)=O)C3)cc1
118 nM	3990 nM	CS(=O)(=O)N1CCc2c(nc(-c3ccc(NC(=O)Nc4cccnc4)cc3)nc2N2C3CCC2COC3)C1
807 nM	–	CN(C)CC(=O)N1CCc2c(nc(-c3ccc(NC(=O)Nc4ccncc4)cc3)nc2N2C3CCC2COC3)C1
301 nM	> 10000 nM	CN(C)C1CCN(C(=O)c2ccc(NC(=O)Nc3ccc(-c4nc5c(c(N6C7CCC6COC7)n4)CNC5)cc3)cc2)CC1
31 nM	224 nM	CN(C)C1CCN(C(=O)c2ccc(NC(=O)Nc3ccc(-c4nc5c(c(N6CCOCC6)n4)CCNC5)cc3)cc2)CC1
1 nM	8 nM	CN(C)C1CCN(C(=O)c2ccc(NC(=O)Nc3ccc(-c4nc5c(c(N6CCOCC6)n4)CN(S(C)(=O)=O)C5)cc3)cc2)CC1
45 nM	782 nM	CS(=O)(=O)N1Cc2nc(-c3ccc(NC(=O)Nc4cccnc4)cc3)nc(N3CCOCC3)c2C1
5 nM	68 nM	O=C(Nc1ccc(-c2nc3c(c(N4CCOCC4)n2)CNC3)cc1)Nc1cccnc1
861 nM	–	CCN1CCc2c(nc(-c3ccc(NC(=O)Nc4ccc(C(=O)NC)cc4)cc3)nc2N2C3CCC2COC3)C1
111 nM	1370 nM	CN1CCc2c(nc(-c3ccc(NC(=O)Nc4cccnc4)cc3)nc2N2CCOCC2)C1
330 nM	–	O=C(Nc1ccncc1)Nc1ccc(-c2nc3c(c(N4CC5CCC(C4)O5)n2)CCN(CCF)C3)cc1
9 nM	74 nM	CN(C)C1CCN(C(=O)c2ccc(NC(=O)Nc3ccc(-c4nc5c(c(N6CCOCC6)n4)CNC5)cc3)cc2)CC1
1 nM	23 nM	CNC(=O)Nc1ccc(-c2nc3c(c(N4CCOCC4)n2)CN(S(C)(=O)=O)C3)cc1
3.5 nM	44 nM	CS(=O)(=O)N1CCc2c(nc(-c3ccc(NC(=O)Nc4cccnc4)cc3)nc2N2CCOCC2)C1

IC50 (PIK3CA (human))	IC50 (PIK3CG (human))	Structure (SMILES)
211 nM	–	CCN1CCc2c(nc(-c3ccc(NC(=O)Nc4ccc(C(=O)N5CCN(C)CC5)cc4)cc3)nc2N2C3CCC2COC3)C1
732 nM	> 10000 nM	CS(=O)(=O)N1Cc2nc(-c3ccc(NC(=O)Nc4cccnc4)cc3)nc(N3C4CCC3COC4)c2C1
110 nM	> 10000 nM	CN(C)C1CCN(C(=O)c2ccc(NC(=O)Nc3ccc(-c4nc5c(c(N6CC7CCC(C6)O7)n4)CNC5)cc3)cc2)CC1
674 nM	9500 nM	CN1CCc2c(nc(-c3ccc(NC(=O)Nc4cccnc4)cc3)nc2N2CC3CCC(C2)O3)C1
737 nM	–	CCN1CCc2c(nc(-c3ccc(NC(=O)Nc4ccc(CN5CCCC5)cc4)cc3)nc2N2C3CCC2COC3)C1
315 nM	3110 nM	CN(C)C1CCN(C(=O)c2ccc(NC(=O)Nc3ccc(-c4nc5c(c(N6CCOCC6)n4)CCN(S(C)(=O)=O)C5)cc3)cc2)CC1
554 nM	–	CCN1CCc2c(nc(-c3ccc(NC(=O)Nc4ccc(C(=O)N(C)C)cc4)cc3)nc2N2C3CCC2COC3)C1
459 nM	–	CC(C)(C)OC(=O)N1CCc2c(nc(-c3ccc(NC(=O)Nc4ccncc4)cc3)nc2N2CC3CCC(C2)O3)C1
39 nM	3390 nM	CNC(=O)Nc1ccc(-c2nc3c(c(N4CC5CCC(C4)O5)n2)CNC3)cc1
66 nM	715 nM	O=C(Nc1ccc(-c2nc3c(c(N4CCOCC4)n2)CCNC3)cc1)Nc1cccnc1
25 nM	841 nM	O=C(Nc1ccc(-c2nc3c(c(N4C5CCC4COC5)n2)CNC3)cc1)Nc1cccnc1
220 nM	–	CCN1CCc2c(nc(-c3ccc(NC(=O)Nc4ccc(C(=O)N5CCCC5)cc4)cc3)nc2N2C3CCC2COC3)C1
153 nM	–	CCN1CCc2c(nc(-c3ccc(NC(=O)Nc4ccncc4)cc3)nc2N2CC3CCC(C2)O3)C1
101 nM	–	COCCN1CCc2c(nc(-c3ccc(NC(=O)Nc4ccncc4)cc3)nc2N2CC3CCC(C2)O3)C1
377 nM	–	COC(=O)N1CCc2c(nc(-c3ccc(NC(=O)Nc4ccncc4)cc3)nc2N2C3CCC2COC3)C1
